Measured values reported in US20060153912A1 (BASF Aktiengesellschaft, priority 2002, published 2006).
Each block holds one molecule with its values, some of them ahead of it.

Columns and labels:
[1] = Color stability of 50% strength water/methanol solutions stirred at reflux (65° C.) in air, Gardner/Hazen color number
[2] = Color stability of 10% strength solutions in water/methanol (1:1), 7 h at 65° C., with and without stabilizer; format: physicochemical; settings: 10% strength solution in water/methanol (1:1), no additive
Description: The experiments took place under the following conditions: 10% strength solutions in water/methanol (1:1)—7 h at 65° C.

[3] = 50% choline ascorbate solution, additive 1% by weight, reaction time 4 h
[4] = 50% solution in 1:1 water/methanol, without additive, reaction time 0 h
[5] = 50% solution in 1:1 water/methanol, without additive, reaction time 1 h
[6] = 50% solution in 1:1 water/methanol, without additive, reaction time 7 h
[7] = 50% choline ascorbate solution, additive 1% by weight, reaction time 3 h
[8] = 50% choline ascorbate solution, additive 1% by weight, reaction time 5 h

SMILES: OP(O)O [Phosphorous acid]
Color number Gardner [1, 3]: 0.7 | Color number Hazen [1, 3]: 163

Color number Gardner [2]: 0.1 | Color number Hazen [2]: 27 | Color number Gardner [1, 4]: 0.1 | Color number Hazen [1, 4]: 27 | Color number Gardner [1, 5]: 0.1 | Color number Hazen [1, 5]: 31 | Color number Gardner [1, 6]: 0.1 | Color number Hazen [1, 6]: 29
SMILES: O=C1O[C@H]([C@@H](O)CO)C(O)=C1O [L-(+)-Ascorbic acid]

SMILES: OB(O)c1ccccc1 [Phenylboronic acid]
Color number Gardner [1, 3]: 2.7 | Color number Hazen [1, 3]: 589

Color number Gardner [1, 3]: 0.4 | Color number Hazen [1, 3]: 122
SMILES: N[C@@H](CCC(=O)N[C@@H](CS)C(=O)NCC(=O)O)C(=O)O [Glutathione]

Color number Gardner [1, 3]: 0.9 | Color number Hazen [1, 3]: 162
SMILES: CC(=O)N[C@@H](CS)C(=O)O [N-Acetylcysteine]

SMILES: C[N+](C)(C)CCO.[Cl-] [Choline chloride]
Color number Gardner [2]: 0.1 | Color number Hazen [2]: 35

Color number Gardner [1, 7]: 0.9 | Color number Hazen [1, 7]: 162 | Color number Gardner [1, 8]: 1.4 | Color number Hazen [1, 8]: 237
SMILES: O=c1[nH]c(=O)c2[nH]c(=O)[nH]c2[nH]1 [Uric acid]

SMILES: C[N+](C)(C)CCO.O=C([O-])C(O)C(O)C(=O)O (stereo not drawn) [Choline bitartrate]
Color number Gardner [2]: 0.1 | Color number Hazen [2]: 32 | Color number Gardner [1, 4]: 0.1 | Color number Hazen [1, 4]: 27 | Color number Gardner [1, 5]: 0.1 | Color number Hazen [1, 5]: 30 | Color number Gardner [1, 6]: 0.1 | Color number Hazen [1, 6]: 28

Color number Gardner [2]: 0.1 | Color number Hazen [2]: 31 | Color number Gardner [1, 4]: 0.1 | Color number Hazen [1, 4]: 26 | Color number Gardner [1, 5]: 0.1 | Color number Hazen [1, 5]: 28 | Color number Gardner [1, 6]: 0.1 | Color number Hazen [1, 6]: 31
SMILES: O=C1O[C@H]([C@@H](O)CO)C([O-])=C1O.[Na+] [Sodium ascorbate]

Color number Gardner [1, 3]: 0.1 | Color number Hazen [1, 3]: 35
SMILES: N[C@@H](CS)C(=O)O [Cysteine]

Color number Gardner [1, 3]: 0.2 | Color number Hazen [1, 3]: 53
SMILES: O=C(O)CCCC[C@@H](S)CCS (racemic) [Dihydrolipoic acid]
